Measurements as given in patent US9238020B2, “Compositions comprising enzyme-cleavable phenol-modified tapentadol prodrug” (priority 2010, dated 2016).
“Also recorded” adds a separate entry of the source. Where a name gives a salt, the structure may show the parent alone. Read-outs that look alike come from different tables or passages of the source.

Tests used:
[1] = Plasma and cerebrospinal fluid penetration following IV administration to rats; type: in vivo, rat; details: rats, IV, 2 minutes after dosing
Experimental: Compound TP-1 (which can be prepared as described in the examples herein) at a dose of 10 mg/kg, or tapentadol, at a dose of 4 mg/kg, were dissolved in saline and injected into the tail vein of 4 male Sprague Dawley rats. These doses represent approximately equimole amounts. After 2 minutes, the rats were anesthetized by carbon dioxide asphyxiation, blood samples were drawn and harvested for plasma by centrifugation at 5,400 rpm at 4° C. for 5 min, and 100 μl plasma was transferred from each sample into a fresh tube containing 2 μl of 50% formic acid. The CSF fluid was collected using a 22×1 inch gauge needle connected to polyurethane catheter type MRE-040 tubing (Braintree Scientific, Inc., Braintree, Mass.). The needle was inserted just below the nuchal crest at the area of the foramen magnum, and clear CSF fluid was collected into the catheter and transferred into a collection tube. The CSF samples were centrifuged at 5,400 rpm at 4° C. for 5 min, and 100 μl CSF fluid was transferred from each sample into a fresh tube. The plasma and CSF samples were immediately placed in dry ice and then stored in a −80° C. freezer until analysis by high performance liquid chromatography/mass spectrometry (HPLC/MS). In order to study Compound TP-1 and tapentadol plasma and CSF penetration over time, additional groups of 4 rats were administered compounds as described above and anesthetized at specified time points. Plasma and CSF were collected and analyzed as described above.
Results in Table 14 are reported, for each group of four rats, as mean concentrations of the indicated compounds in plasma or CSF. Table 14 also provides the plasma-to-CSF (plasma/CSF) partitioning coefficient, i.e., the ratio of concentration in the plasma to concentration in the CSF of the indicated compounds.

[2] = system: norepinephrine uptake into rat hypothalamus synaptosomes; experiment: In vitro functional norepinephrine uptake assay; type: biochemical
Experimental: The general procedure follows the protocol described by S. Perovic and W. E. G. Muller, 1995, Arzneim-Forsch. Drug Res. 45, 1145-1148. More specifically, the assays included each of the compounds indicated in Table 13 and rat hypothalamus synaptosomes incubated with 0.2 μCi/mL [^3H] norepinephrine. For a control reaction, protriptyline was used. The reaction mixtures were incubated at 37° C. for 20 min, and the reaction product of [^3H] norepinephrine incorporation into the synaptosomes was measured by scintillation counting. IC50 values (concentration causing a half-maximal inhibition of control specific activity) were determined by non-linear regression fit using Hill plot software.

[3] = target: human μ-opioid receptor (Homo sapiens, UniProt P35372); experiment: In vitro human μ-opioid receptor agonist cellular functional assay (cAMP, CHO cells); type: cell-based; set-up: expressed in transfected cells; details: CHO cells expressing human μ-opioid receptor, 37° C., 10 min
Experimental: The general procedure follows the protocol described by J.-B. Wang, et al, ibid. More specifically, the assay included as appropriate, Compound TP-1 or tapentadol and recombinant Chinese hamster ovary (CHO) cells expressing the human μ-opioid receptor on their cell surfaces. The control reaction included 1 μM DAMGO. The reaction mixtures were incubated at 37° C. for 10 min, and the reaction product was cyclic AMP (cAMP). The samples were submitted to homogeneous time resolved fluorescence (HTRF®). EC50 values (concentration producing a half-maximal specific response) were determined by non-linear regression fit using Hill plot software.

[4] = Pharmacokinetics of tapentadol release following PO administration of prodrugs or tapentadol to rats; type: in vivo, rat; details: approximately equimole amounts
Experimental: (§1) Saline solutions of Compound TP-1 (which can be prepared as described in the examples herein) were dosed as indicated in Table 1 via oral gavage into 4 jugular vein-cannulated male Sprague Dawley rats that had been fasted for 16-18 hr prior to oral dosing. At specified time points, blood samples were drawn, harvested for plasma via centrifugation at 5,400 rpm at 4° C. for 5 min, and 100 microliters (μl) plasma transferred from each sample into a fresh tube containing 2 μl of 50% formic acid. The tubes were vortexed for 5-10 seconds, immediately placed in dry ice and then stored in a −80° C. freezer until analysis by HPLC/MS.
Saline solutions of Compounds TP-1, TP-3, TP-4, (which can be prepared as described in the examples herein) or tapentadol were dosed in approximately equimole amounts as indicated in Table 6. Dose administration, sampling and analysis procedures were as described in Example 11.
Dosing, sampling and analysis procedures were as described in Example 11.

[5] = Pharmacokinetics of prodrug and tapentadol following IV administration to rats; details: male, Sprague Dawley, in vivo; Table 7; prodrug in rat plasma; IV 2 mg/kg; read-out: Prodrug Cmax ± sd
Experimental: Compound TP-1 (which can be prepared as described in the examples herein) was dissolved in saline and injected into the tail vein of 4 jugular vein-cannulated male Sprague Dawley rats at a dose of 2 mg/kg. At specified time points, blood samples were drawn, harvested for plasma via centrifugation at 5,400 rpm at 4° C. for 5 min, and 100 μl plasma transferred from each sample into a fresh tube containing 2 μl of 50% formic acid. The tubes were vortexed for 5-10 seconds, immediately placed in dry ice and then stored in a −80° C. freezer until analysis by high performance liquid chromatography/mass spectrometry (HPLC/MS).
Table 2 and FIG. 4 provide Compound TP-1 and tapentadol exposure results for rats administered Compound TP-1 intravenously. Results in Table 2 are reported as maximum plasma concentration (Cmax) of Compound TP-1 and tapentadol (TP), respectively, (average±standard deviation).
Compound TP-3 or Compound TP-4 (which can be prepared as described in the examples herein), or tapentadol were dissolved in saline and injected into the tail vein of four jugular vein-cannulated male Sprague Dawley rats at a dose of 2 mg/kg. Sampling and analysis procedures were as described in Example 12.

[6] = target: T1, trypsin (Bos taurus, UniProt P00760); experiment: In vitro trypsin conversion of prodrug to tapentadol and inhibition thereof by Compound 109; type: biochemical, bovine; details: bovine, trypsin from bovine pancreas, Table 8, 4815 BAEE U trypsin/mL, read-out: Pro-drug trypsin half-life, Average ± sd (converted)
T1 construct: purchased Sigma-Aldrich T8003; host or cells: bovine pancreas
T1 sequence (P00760 24-246): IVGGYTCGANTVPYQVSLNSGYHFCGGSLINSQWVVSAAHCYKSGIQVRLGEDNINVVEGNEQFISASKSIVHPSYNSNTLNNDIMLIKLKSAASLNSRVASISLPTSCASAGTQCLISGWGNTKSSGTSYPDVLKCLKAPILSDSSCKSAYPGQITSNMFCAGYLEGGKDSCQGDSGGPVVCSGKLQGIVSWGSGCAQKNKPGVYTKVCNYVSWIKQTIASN
Experimental: (§2) Compound TP-1 was incubated with trypsin from bovine pancreas (Catalog No. T8003, Type I, ˜10,000 BAEE units/mg protein, Sigma-Aldrich). Specifically, the reactions included 0.761 nM of Compound TP-1•2HCl, 22.5 mM calcium chloride, 40 to 172 mM Tris pH 8 and 0.25% DMSO with the BAEE units of trypsin indicated in Table 4. The reactions were conducted at 37° C. for 24 hr. Samples were collected at specified time points, transferred into 0.5% formic acid in acetonitrile to stop trypsin activity and stored at less than −70° C. until analysis by LC-MS/MS.
(§3) Compound TP-1 was also incubated in the presence of 2 micromolar (μM) trypsin inhibitor Compound 109. In that case, Compound TP-1 was added 5 min after the other incubation components. Other reaction and sample treatment conditions were as described above.
(§4) Table 4 indicates the results of exposure of Compound TP-1 to trypsin in the absence or presence of trypsin inhibitor. The results are expressed as half-life of prodrug when exposed to trypsin (i.e., Prodrug trypsin half-life) in hours and rate of tapentadol (TP) formation in umol/h/BAEE U trypsin.
(§5) Compound TP-1, Compound TP-3, or Compound TP-4 (which can be prepared as described in the examples herein) were incubated in the absence or presence of Compound 109 as shown in Table 8. Incubations and analysis procedures were as described in Example 14.

[7] = target: T2, trypsin from bovine pancreas (Bos taurus, UniProt P00760); experiment: as above; type: biochemical; details: Table 8, 4815 BAEE U trypsin/mL
T2 construct: purchased Sigma-Aldrich T8003; host or cells: bovine pancreas
T2 sequence (P00760 24-246): T1 sequence (P00760 24-246)
Experimental: as §2, §3, §4, §5

[8] = Oral administration of tapentadol prodrugs with or without co-dose of trypsin inhibitor Compound 109 to rats; type: in vivo, rat; details: by suppressing Cmax and AUC and/or delaying Tmax
Experimental: as §1, with “dosed at 39 μmol/kg (25 mg/kg) with or without a co-dose of 55 μmol/kg (30 mg/kg) Compound 109 (Catalog No. 3081, Tocris Bioscience, Ellisville, Mo., USA or Catalog No. WS38665, Waterstone Technology, Carmel, Ind., USA)” for “dosed”, “Table 3” for “Table 1”, “into” for “into 4”, “rats (4 per groups)” for “rats”, “100 μl” for “100 microliters (μl)”
Table 3 and FIG. 5 provide tapentadol exposure results for rats administered with Compound TP-1 in the absence or presence of trypsin inhibitor.
Saline solutions of Compound TP-3 or Compound TP-4 (which can be prepared as described in the examples herein) were dosed as indicated in Table 9 and according to the procedures as described in Example 13. Sampling and analysis procedures were as described in Example 13. […]

[9] = TP-1 10 mg/kg, tapentadol 4 mg/kg
[10] = pH 8, with Compound 109 (trypsin inhibitor), Compound 109 40 μM

human μ-opioid receptor, sequence (P35372 whole entry): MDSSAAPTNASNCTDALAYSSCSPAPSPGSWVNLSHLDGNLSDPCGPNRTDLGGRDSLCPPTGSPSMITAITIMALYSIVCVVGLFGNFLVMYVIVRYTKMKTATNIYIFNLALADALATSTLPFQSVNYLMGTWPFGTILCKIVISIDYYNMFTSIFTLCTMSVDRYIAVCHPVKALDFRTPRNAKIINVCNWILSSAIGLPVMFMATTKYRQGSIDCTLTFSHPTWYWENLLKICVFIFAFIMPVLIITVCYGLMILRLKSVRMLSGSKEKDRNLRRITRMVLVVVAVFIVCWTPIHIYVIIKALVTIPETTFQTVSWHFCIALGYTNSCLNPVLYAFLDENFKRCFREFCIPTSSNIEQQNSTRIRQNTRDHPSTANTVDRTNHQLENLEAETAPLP

| Compound | Compound conc. in CSF [1, 9] [ng/mL] | Compound conc. in Plasma [1, 9] [ng/mL] | Plasma/CSF partitioning coefficient ([1]; ratio of concentration in plasma to concentration in CSF) | IC50 ([2]; [3H] norepinephrine incorporation into rat hypothalamus synaptosomes, 37° C., 20 min) [nM] | activity as a norepinephrine reuptake inhibitor ([2]; rat hypothalamus synaptosomes) | agonist response in the μ-opioid receptor functional assay [3] | tapentadol plasma concentration profile compared to administration of tapentadol [4] | Cmax [5] [ng/mL] | half-life at 0.761 nM [6, 10] [h] | half-life at 0.761 nM ([6]; pH 8, Compound 109 0 μM) [h] | Rate of TP formation, Average ± sd ([7]; Compound 109 0 μM) [umol/h/BAEE U] | Rate of TP formation, Average ± sd ([7]; Compound 109 40 μM) [umol/h/BAEE U] | effect of co-dosed Compound 109 on release of tapentadol from prodrug [8] |
| --- | --- | --- | --- | --- | --- | --- | --- | --- | --- | --- | --- | --- | --- |
| CC[C@@H](c1cccc(O)c1)[C@@H](C)CN(C)C [Tapentadol, 3-[(1R,2R)-3-(dimethylamino)-1-ethyl-2-methylpropyl]phenol hydrochloride] | 179 | 1870 | 10.4 | 390 | has activity as a norepinephrine reuptake inhibitor | no response up to a concentration of 10 μM | – | – | – | – | – | – | – |
| CC[C@@H](c1cccc(OC(=O)N(C)CC(C)(C)CNC(=O)[C@H](CCCNC(=N)N)NC(=O)CC(=O)O)c1)[C@@H](C)CN(C)C [Compound TP-4, N—[(S)-1-(3-{[3-((1R,2R)-3-Dimethylamino-1-ethyl-2-methyl-propyl)-phenoxycarbonyl]-methyl-amino}-2,2-dimethyl-propylcarbamoyl)-4-guanidino-butyl]-malonamic acid] | – | – | – | – | – | – | suppressed Cmax and delayed Tmax | 988 ± 89 | 1.76 ± 0.22 | 0.0823 ± 0.0028 | 0.0753 ± 0.0007 | 0.028 ± 0.0004 | – |
| N=C(N)c1ccc2cc(OC(=O)c3ccc(N=C(N)N)cc3)ccc2c1 [Compound 109, 6-carbamimidoylnaphthalen-2-yl 4-(diaminomethyleneamino)benzoate] | – | – | – | – | – | – | – | – | – | – | – | – | attenuates Compound TP-1's ability to release tapentadol; also recorded: attenuates the abilities of both Compound TP-3 and Compound TP-4 to release tapentadol; also recorded: can attenuate the abilities of both Compound TP-1 and Compound TP-3 to release tapentadol |
| CC[C@@H](c1cccc(OC(=O)N(C)CCNC(=O)[C@H](CCCCN)NC(=O)CC(=O)O)c1)[C@@H](C)CN(C)C [Compound TP-3, N—[(S)-5-Amino-1-(2-{[3-((1R,2R)-3-dimethylamino-1-ethyl-2-methyl-propyl)-phenoxycarbonyl]-methyl-amino}-ethylcarbamoyl)-pentyl]-malonamic acid] | – | – | – | – | – | – | suppressed Cmax and delayed Tmax | 1460 ± 99 | 12.2 ± 0.33 | 0.271 ± 0.0023 | 0.0258 ± 0.0024 | 0.0048 ± 0.0000 | – |
